Results as given in US20120289492A1, “METHODS OF TREATING MITOCHONDRIAL DISORDERS USING METALLOPORPHYRINS” (priority 2009, published 2012).

Assay: Peroxynitrite-induced oxidation of dihydrorhodamine-123
Assay type: biochemical
Conditions: peroxynitrite 1 μM, dihydrorhodamine 123 10 μM, pH 7.4
From the text: Mitochondrial oxidative stress production To determine if increased oxidative stress occurred in mitochondrial fractions, the levels of CoASH, CoASSG, aconitase, ascorbate, cysteine, methionine and 3-NT were examined in the forebrain of Sod2 −/− mice at 15-16 days old. GSH is the most abundant thiol containing antioxidant in tissues and brain (Meister & Anderson (1983) Annu Rev Biochem 52, 711-60) and plays an important role in preventing oxidative damage. […] To determine if direct scavenging of ONOO− could result in decreased 3NT levels by AEOL11207, we measured its ability to inhibit ONOO-induced oxidation of dihydrorhodamine-123.
Measurement of peroxynitrite-induced oxidation of dihydrorhodamine-123 inhibition by metalloporphyrins The peroxynitrite-dependent oxidation of dihydrorhodamine-123 to rhodamine-123 is measured based on previously described methods (Kooy et al. (1994) Free Radic Biol Med 16, 149-56; Szabo, et al. (1996) FEBS Lett 381, 82-6). […] After 10 min incubation at room temperature, the fluorescence of rhodamine 123 was measured using a fluorimeter (Perkin-Elmer, Norwalk, Conn.) at an excitation wavelength of 500 nm, emission wavelength of 536 nm

COC(=O)c1c2nc(c(C(F)(F)F)c3ccc([n-]3)c(C(=O)OC)c3nc(c(C(F)(F)F)c4ccc1[n-]4)C=C3)C=C2.[Cl-].[Mn+3] [AEOL11207]
IC50: 3.7 µM
